Assays:
[1] = test system: CNS cancer cells (SF-268, SF-295, SF-539, SNB-19, SNB-75, U251); test: NCI anticancer screening, CNS cancer subpanel; format: cell-based, human
Description: The compound has been processed according to standard method NCI-60 Human Tumor Cell Lines Screen for organic compound at development therapeutic program (DTP). Requests for access to this national resource can be submitted online at: […]

cyclin D = test: Real time PCR cyclin D gene expression in MDA-MB 231 cells; details: treated MDA-MB 231 cells compared to untreated cells
p21 = test: Real time PCR p21 gene expression in MDA-MB 231 cells; details: treated MDA-MB 231 cells compared to untreated cells
Ki-67 = test: Immunohistochemical detection of Ki-67 in MDA-MB 231 cells; format: cell-based, human; details: MDA-MB 231, 72 h; untreated 82.425%
Description: (§1) After trypsinization, the untreated and treated MDA-MB231 cells were centrifuged and washed with PBS buffer and then 10% formalin in PBS was added to cell pellets. The fixed cell specimens were dehydrated in ascending grades of alcohol and immersed in xylene for one hour (three times) followed by impregnation in melted paraffin to from solid paraffin blocks. Then a rotator microtome was used to cut each block into 3-5 μm thick sections that were transferred into positively charge slides. Slides were dried at 60-70°C for 1-2 h then dewaxed by immersion in xylene 3 times and rehydrated in descending grading ethanol. After that slides were incubated in 3% H2O2 for 10 min, washed in PBS buffer twice for 3 min and put in 10 mM citrate buffer […] followed by heating for 10-20 min. After cooling and washing in PBS, slides were separately soaked overnight in primary antibodies (anti-Ki-67 and anti-p53). Slides were washed in PBS, covered with biotinylated goat anti-polyvalent secondary antibody for 10 min and then streptavidin peroxidase was added. After 10 min, substrate of secondary antibody (3,3'-diaminobenzidine) was added followed by washing in PBS and placing in hematoxylin bath for 1-4 min then washing in PBS (1 min) and water (3 min). Percentage of immunostained cells was evaluated by imaging analysis cellSens software of phase contrast microscope (Olympus, Japan).

[2] = test system: human p53 transcription factor; test: p53 transcription factor activity assay in MDA-MB 231 cells; format: cell-based; details: treated MDA-MB 231 cells relative to the untreated cells
Description: The relative fold activation of p53 in the treated MDA-MB 231 cells were quantified using human p53 transcription factor activity assay kit (RayBio, USA). Briefly, 100 µl of lysates of the untreated and treated MDA-MB 231 cells were added to p53 probe-coated 96 wells and incubated for 2 h (these oligonucleotides capture the active p53 in cell lysate). After washing for discarding unbound p53, primary antibody was added to bound p53-DNA complex, incubated for 1 h. Each well was washed then peroxidase-conjugated secondary antibody was added and incubated for 1 h. After washing and incubating with substrate for 30 min, the absorbance was measured at 450 nm.

p53 = test: Immunohistochemical detection of p53 in MDA-MB 231 cells; format: cell-based, human; details: MDA-MB 231, 72 h, compared to untreated cells
Description: as §1

| SMILES | growth inhibition in CNS cancer cells [1] | expression level of cyclin D (cyclin D) | upregulation of p21 expression (p21) | Ki-67 level (positive immunostaining cells) (Ki-67) | fold activation of p53 transcription factor [2] | increase of protein level of p53 (p53) |
| --- | --- | --- | --- | --- | --- | --- |
| O=C(c1nc2ccccc2[nH]1)[C@H]1[C@H](c2ccc(Cl)cc2Cl)C2CSCN2[C@]12C(=O)Nc1ccccc12 (stereo partly drawn) [Compound 6g, (3S,6′R)-6'-(1H-Benzo [d]imidazole-2-carbonyl)-7'-(2,4-dichlorophenyl)-3′,6′,7′,7a′-tetrahydro-1′H-spiro [indoline-3.5′-pyrrolo [1,2-c]thiazol]-2-one] | less than 80% | – | – | – | – | – |
| O=C(c1nc2ccccc2[nH]1)[C@H]1[C@H](c2ccc(Br)cc2)C2CSCN2[C@]12C(=O)Nc1ccccc12 (stereo partly drawn) [Compound 6l, (3S,6′R)-6'-(1H-Benzo [d]imidazole-2-carbonyl)-7'-(4-bromophenyl)-3′,6′,7′,7a′-tetrahydro-1′H-spiro [indoline-3.5′-pyrrolo [1,2-c]thiazol]-2-one] | less than 80% | – | – | – | – | – |
| Cc1ccc([C@@H]2C3CSCN3[C@]3(C(=O)Nc4ccccc43)[C@H]2C(=O)c2nc3ccccc3[nH]2)cc1 (mixture of isomers) [Compound 6d, (3S,6′R)-6'-(1H-Benzo [d]imidazole-2-carbonyl)-7'-(p-tolyl)-3′,6′,7′,7a′-tetrahydro-1′H-spiro [indoline-3.5′-pyrrolo [1,2-c]thiazol]-2-one] | – | downregulating | greater than three times | 3.03% | 6.287 ± 0.254 fold | 54.7% |
| O=C(c1nc2ccccc2[nH]1)[C@H]1[C@H](c2ccccc2)C2CSCN2[C@]12C(=O)Nc1ccccc12 (mixture of isomers) [Compound 6a, (3S,6′R)-6'-(1H-benzo [d]imidazole-2-carbonyl)-7′-phenyl-3′,6′,7′,7a′-tetrahydro-1′H-spiro [indoline-3.5′-pyrrolo [1,2-c]thiazol]-2-one] | – | downregulating | – | 1.18% | 5.983 ± 0.142 fold | 60.2% |

From paper PMC11033320, “Activation of p53 signaling and regression of breast and prostate carcinoma cells by spirooxindole-benzimidazole small molecules” (Frontiers in Pharmacology, 2024)
